From patent US20130298921A1, “INHALER FOR SMOKING CESSATION” (Rock Creek Pharmaceuticals, Inc., priority 2011, published 2013)
Read-outs that look alike come from different tables or passages of the source.

Legend:
α4/β2 nAChR channel = target: T1, α4/β2 nAChR channel (Homo sapiens, UniProt P17787+P43681); assay: Fluo-8 calcium FLIPR assay, cloned nAChR channels in mammalian cells; format: cell-based
T1 construct: expressed in transfected cells

[1] = tested on: precipitated nicotine withdrawal; assay: precipitated nicotine withdrawal; format: in vivo, rodents; conditions: anatabine administration
[2] = tested on: nicotine self-administration by rats; conditions: anatabine 1.8-5.6 mg/kg, Caine et al., 2013, cited from earlier work
[3] = tested on: nicotine self-administration by rats; assay: nicotine self-administration by rats; format: in vivo; conditions: anatabine 1.8 and 3.2 mg/kg IP; peak reinforcing nicotine doses 0.003 and 0.01 mg/kg/inj; P<0.05-0.001; FIG. 6
α7 nAChR channel = target: T2, α7 nAChR channel (Homo sapiens, UniProt P36544); assay: Fluo-8 calcium FLIPR assay, cloned nAChR channels in mammalian cells; format: cell-based; conditions: for agonist character / maximum level of activation: agonist assay
T2 construct: expressed in transfected cells
T2 sequence (P36544 23-502): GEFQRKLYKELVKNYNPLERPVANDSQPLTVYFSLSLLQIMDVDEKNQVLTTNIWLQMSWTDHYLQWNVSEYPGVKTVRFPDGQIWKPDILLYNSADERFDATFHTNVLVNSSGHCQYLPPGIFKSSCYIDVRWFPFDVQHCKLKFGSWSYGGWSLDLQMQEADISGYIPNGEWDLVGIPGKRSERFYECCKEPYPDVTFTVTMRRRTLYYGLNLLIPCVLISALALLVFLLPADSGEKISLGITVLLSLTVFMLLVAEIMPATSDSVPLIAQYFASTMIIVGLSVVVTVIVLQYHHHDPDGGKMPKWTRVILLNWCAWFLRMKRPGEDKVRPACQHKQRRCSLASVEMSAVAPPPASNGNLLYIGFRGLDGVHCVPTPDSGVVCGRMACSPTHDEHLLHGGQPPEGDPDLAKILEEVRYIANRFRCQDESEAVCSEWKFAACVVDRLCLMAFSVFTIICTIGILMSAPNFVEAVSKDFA

[4] = tested on: nicotine self-administration in rhesus monkeys; assay: nicotine self-administration in nonhuman primate model (second-order schedule, nicotine- and food-maintained responding); format: in vivo, rhesus monkeys (Macaca Mulatta); conditions: for food-maintained responding (change with increasing anatabine doses): anatabine 0.18-3.2 mg/kg IM; for nicotine self-administration: single doses of anatabine 0.18-3.2 mg/kg IM, nicotine training dose 0.01 mg/kg/inj (base)
Source text: Food was available during three 1-hour sessions each day (7 AM, 3 PM and 7 PM).
Food pellets were limited to 25 per session or 100 per day.
Nicotine doses are expressed as the base.

[5] = tested on: rodents trained to self-administer nicotine; assay: reward in rodents trained to self-administer nicotine; format: in vivo
α3/β4 nAChR channel = target: T3, α3/β4 nAChR channel (Homo sapiens, UniProt P30926+P32297); assay: Fluo-8 calcium FLIPR assay, cloned nAChR channels in mammalian cells; format: cell-based
T3 construct: expressed in transfected cells
T3 sequence (P32297 32-505): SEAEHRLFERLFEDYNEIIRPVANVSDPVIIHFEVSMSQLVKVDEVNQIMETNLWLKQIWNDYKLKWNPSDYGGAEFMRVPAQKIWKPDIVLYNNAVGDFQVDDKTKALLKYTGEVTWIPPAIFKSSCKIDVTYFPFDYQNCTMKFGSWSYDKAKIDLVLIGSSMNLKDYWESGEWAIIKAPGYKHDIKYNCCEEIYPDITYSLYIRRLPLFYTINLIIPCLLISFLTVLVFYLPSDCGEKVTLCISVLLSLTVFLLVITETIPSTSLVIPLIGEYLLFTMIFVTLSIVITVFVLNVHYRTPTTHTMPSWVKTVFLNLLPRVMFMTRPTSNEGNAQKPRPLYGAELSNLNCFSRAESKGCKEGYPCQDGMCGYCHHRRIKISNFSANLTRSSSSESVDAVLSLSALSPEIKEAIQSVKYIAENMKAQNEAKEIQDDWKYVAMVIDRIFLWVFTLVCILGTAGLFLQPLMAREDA
T3 sequence (P30926 22-498): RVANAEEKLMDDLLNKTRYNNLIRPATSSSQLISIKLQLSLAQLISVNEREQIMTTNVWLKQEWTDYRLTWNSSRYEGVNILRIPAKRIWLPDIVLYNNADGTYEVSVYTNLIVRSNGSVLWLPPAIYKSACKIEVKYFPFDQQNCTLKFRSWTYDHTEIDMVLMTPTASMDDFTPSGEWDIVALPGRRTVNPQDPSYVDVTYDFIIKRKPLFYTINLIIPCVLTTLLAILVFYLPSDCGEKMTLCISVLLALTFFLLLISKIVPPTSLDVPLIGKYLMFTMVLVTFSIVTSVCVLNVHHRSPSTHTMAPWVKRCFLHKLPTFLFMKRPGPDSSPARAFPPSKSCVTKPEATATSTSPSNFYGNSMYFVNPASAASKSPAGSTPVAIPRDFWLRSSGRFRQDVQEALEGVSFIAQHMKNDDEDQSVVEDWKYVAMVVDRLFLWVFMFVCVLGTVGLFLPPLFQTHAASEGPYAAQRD

[6] = tested on: Hippocampus (rat hippocampal homogenates); assay: binding relative to nicotine in rat hippocampal homogenates; conditions: reference set to 1.0
Source text: (§1) This example describes a study conducted on anatabine along with other common nicotinic alkaloids in rat frontal and hippocampal homogenates.

[7] = tested on: Frontal cortex (rat frontal homogenates); assay: binding relative to nicotine in rat frontal homogenates; conditions: reference set to 1.0
Source text: as §1

[8] = antagonist and positive allosteric modulator modes

T1 sequence (P43681 29-627 limits assumed): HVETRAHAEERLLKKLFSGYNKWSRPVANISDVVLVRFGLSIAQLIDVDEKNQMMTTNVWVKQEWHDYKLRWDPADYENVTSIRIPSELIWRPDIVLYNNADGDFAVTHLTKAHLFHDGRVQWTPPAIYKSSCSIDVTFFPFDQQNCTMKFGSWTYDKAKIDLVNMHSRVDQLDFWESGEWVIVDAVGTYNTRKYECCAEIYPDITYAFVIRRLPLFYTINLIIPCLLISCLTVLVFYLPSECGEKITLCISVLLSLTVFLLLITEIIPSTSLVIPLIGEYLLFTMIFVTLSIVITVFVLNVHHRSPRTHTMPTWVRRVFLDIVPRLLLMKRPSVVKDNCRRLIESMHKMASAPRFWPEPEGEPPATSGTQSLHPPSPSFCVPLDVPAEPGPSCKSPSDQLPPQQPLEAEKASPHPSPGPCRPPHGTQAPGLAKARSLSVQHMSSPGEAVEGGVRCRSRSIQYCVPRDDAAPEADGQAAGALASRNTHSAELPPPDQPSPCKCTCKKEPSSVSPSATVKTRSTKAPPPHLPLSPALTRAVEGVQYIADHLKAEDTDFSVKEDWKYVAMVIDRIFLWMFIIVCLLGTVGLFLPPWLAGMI
T1 sequence (P17787 26-502): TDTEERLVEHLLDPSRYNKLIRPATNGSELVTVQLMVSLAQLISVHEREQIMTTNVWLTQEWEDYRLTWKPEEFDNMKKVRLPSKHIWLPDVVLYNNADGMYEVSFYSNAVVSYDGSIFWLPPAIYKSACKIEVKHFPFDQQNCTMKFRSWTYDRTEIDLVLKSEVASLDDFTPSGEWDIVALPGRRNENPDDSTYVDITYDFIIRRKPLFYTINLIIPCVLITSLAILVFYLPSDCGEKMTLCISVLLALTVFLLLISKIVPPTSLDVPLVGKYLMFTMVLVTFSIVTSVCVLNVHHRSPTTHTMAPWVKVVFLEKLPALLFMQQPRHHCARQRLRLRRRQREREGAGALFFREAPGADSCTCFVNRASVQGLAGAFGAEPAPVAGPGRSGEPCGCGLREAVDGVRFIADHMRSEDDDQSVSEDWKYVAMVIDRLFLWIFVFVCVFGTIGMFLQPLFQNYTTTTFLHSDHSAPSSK

C1=CCC(c2cccnc2)NC1 (racemic) [Anatabine, anatabine]
agonist character (α4/β2 nAChR channel; agonist assay): full agonist | antagonist or PAM effects (α4/β2 nAChR channel; [8]): no antagonist or PAM effects | reversal of precipitated nicotine withdrawal [1]: does not reverse precipitated nicotine withdrawal | effect on nicotine dose-effect curve [2]: flattened the nicotine dose-effect curve | nicotine-maintained responding ([2]; nicotine 0.003 and 0.01 mg/kg/inj): significantly reduced | nicotine-maintained responding [3]: significantly reduced | agonist character (α7 nAChR channel): full, potent agonists | maximum level of activation (α7 nAChR channel): also similar (and similar to ACh) | antagonist or PAM effects (α7 nAChR channel; [8]): no antagonist or PAM effects | effect on nicotine dose-effect curve ([4]; anatabine 0.32 mg/kg, data for two monkeys): shifts the peak of the dose-effect curve to the right | effect on nicotine dose-effect curve ([4]; anatabine 1.0 mg/kg): flattened the dose-effect curve | food-maintained responding (change with increasing anatabine doses) [4]: no significant effects | food-maintained responding (change with increasing anatabine doses) ([4]; listed as anatabine): not statistically significant | decreases in nicotine-maintained responding versus baseline ([4]; anatabine doses of 1.8 and 3.2 mg/kg IM, P<0.005-0.02): significantly different from baseline | systematic behavioral assessments (sedation or agitation) ([4]; following each treatment session): no evidence of sedation or agitation | nicotine self-administration [4]: dose-dependently reduced | nicotine self-administration ([4]; listed as anatabine): dose-dependently decreased | rewarding effect [5]: do not find anatabine to be rewarding | EC50 (α3/β4 nAChR channel; agonist assay): 14.6 µM | agonist character (α3/β4 nAChR channel; agonist assay): partial agonist | antagonist or PAM effects (α3/β4 nAChR channel; [8]): no antagonist or PAM effects

CN1CCCC1c1cccnc1 (single isomer, unassigned) [Nicotine, nicotine, reference compound]
Nicotine Binding Constant [6]: 1.0 | agonist character (α7 nAChR channel): full, potent agonists | maximum level of activation (α7 nAChR channel): also similar (and similar to ACh) | Nicotine Binding Constant [7]: 1.0 | food-maintained responding with increasing doses of nicotine ([4]; nicotine 0.001-0.1 mg/kg/inj): did not change | peak of the nicotine dose-effect curve ([4]; nicotine 0.001-0.1 mg/kg/inj, 7 monkeys): 0.0032 mg/kg/inj | agonist character (α3/β4 nAChR channel; agonist assay): full agonist | maximal response of the channel compared with ACh (α3/β4 nAChR channel; agonist assay): approached that of ACh
